pIC50: −log10 of the molar value.
What was measured:
[1] = target: High affinity nerve growth factor receptor (Homo sapiens, UniProt P04629); test: Inhibition of recombinant His-tagged human TRKA (441 to 796 residues) expressed in baculovirus expression system at 20 uM using 5-FAM-EEPLYWSFPAKKK-CONH2 as substrate preincubated for 1 hr followed by substrate addition in presence of ATP by mobility shift assay relative to control
KM12 [2] = test: Cytotoxicity against human KM12 cells assessed as reduction in cell viability incubated for 72 hrs by resazurin based assay; assay type: functional; settings: KM12, 72 h
[3] = Permeability of compound in human brain like endothelial cells BBB model at 10 uM after 120 mins by LC-MS analysis; assay type: ADME, cell-based; settings: read-out: permeability (converted)
NCI/ADR-RES = test: Antiproliferative activity against human NCI/ADR-RES cells assessed as cell growth at 10 uM relative to control; assay type: functional; settings: read-out: Activity
LOX IMVI = test: Antiproliferative activity against human LOX IMVI cells assessed as cell growth at 10 uM relative to control; assay type: functional; settings: read-out: Activity
Malme-3M = test: Antiproliferative activity against human MALME-3M cells assessed as cell growth at 10 uM relative to control; assay type: functional; settings: read-out: Activity
U-251 = test: Antiproliferative activity against human U-251 cells assessed as cell growth at 10 uM relative to control; assay type: functional; settings: read-out: Activity
SNB-75 = test: Antiproliferative activity against human SNB-75 cells assessed as cell growth at 10 uM relative to control; assay type: functional; settings: read-out: Activity
SNB-19 = test: Antiproliferative activity against human SNB-19 cells assessed as cell growth at 10 uM relative to control; assay type: functional; settings: read-out: Activity
SF-539 = test: Antiproliferative activity against human SF-539 cells assessed as cell growth at 10 uM relative to control; assay type: functional; settings: read-out: Activity
SF-295 = test: Antiproliferative activity against human SF-295 cells assessed as cell growth at 10 uM relative to control; assay type: functional; settings: read-out: Activity
SF-268 = test: Antiproliferative activity against human SF-268 cells assessed as cell growth at 10 uM relative to control; assay type: functional; settings: read-out: Activity
SW-620 = test: Antiproliferative activity against human SW-620 cells assessed as cell growth at 10 uM relative to control; assay type: functional; settings: read-out: Activity
KM12 [4] = test: Antiproliferative activity against human KM12 cells assessed as cell growth at 10 uM relative to control; assay type: functional; settings: read-out: Activity
HT-29 = test: Antiproliferative activity against human HT-29 cells assessed as cell growth at 10 uM relative to control; assay type: functional; settings: read-out: Activity
HCT-15 = test: Antiproliferative activity against human HCT-15 cells assessed as cell growth at 10 uM relative to control; assay type: functional; settings: read-out: Activity
HCT-116 = test: Antiproliferative activity against human HCT-116 cells assessed as cell growth at 10 uM relative to control; assay type: functional; settings: read-out: Activity
HCC 2998 = test: Antiproliferative activity against human HCC 2998 cells assessed as cell growth at 10 uM relative to control; assay type: functional; settings: read-out: Activity
COLO 205 = test: Antiproliferative activity against human COLO 205 cells assessed as cell growth at 10 uM relative to control; assay type: functional; settings: read-out: Activity
NCI-H522 = test: Antiproliferative activity against human NCI-H522 cells assessed as cell growth at 10 uM relative to control; assay type: functional; settings: read-out: Activity
NCI-H460 = test: Antiproliferative activity against human NCI-H460 cells assessed as cell growth at 10 uM relative to control; assay type: functional; settings: read-out: Activity
NCI-H322M = test: Antiproliferative activity against human NCI-H322M cells assessed as cell growth at 10 uM relative to control; assay type: functional; settings: read-out: Activity
NCI-H23 = test: Antiproliferative activity against human NCI-H23 cells assessed as cell growth at 10 uM relative to control; assay type: functional; settings: read-out: Activity
NCI-H226 = test: Antiproliferative activity against human NCI-H226 cells assessed as cell growth at 10 uM relative to control; assay type: functional; settings: read-out: Activity
HOP-92 = test: Antiproliferative activity against human HOP-92 cells assessed as cell growth at 10 uM relative to control; assay type: functional; settings: read-out: Activity
HOP-62 = test: Antiproliferative activity against human HOP-62 cells assessed as cell growth at 10 uM relative to control; assay type: functional; settings: read-out: Activity
EKVX = test: Antiproliferative activity against human EKVX cells assessed as cell growth at 10 uM relative to control; assay type: functional; settings: read-out: Activity
A549 = test: Antiproliferative activity against human A549 cells assessed as cell growth at 10 uM relative to control; assay type: functional; settings: read-out: Activity
SR = test: Antiproliferative activity against human SR cells assessed as cell growth at 10 uM relative to control; assay type: functional; settings: read-out: Activity
RPMI-8226 = test: Antiproliferative activity against human RPMI-8226 cells assessed as cell growth at 10 uM relative to control; assay type: functional; settings: read-out: Activity
MOLT-4 = test: Antiproliferative activity against human MOLT-4 cells assessed as cell growth at 10 uM relative to control; assay type: functional; settings: read-out: Activity
K562 = test: Antiproliferative activity against human K562 cells assessed as cell growth at 10 uM relative to control; assay type: functional; settings: read-out: Activity
HL-60(TB) = test: Antiproliferative activity against human HL-60(TB) cells assessed as cell growth at 10 uM relative to control; assay type: functional; settings: read-out: Activity
CCRF-CEM = test: Antiproliferative activity against human CCRF-CEM cells assessed as cell growth at 10 uM relative to control; assay type: functional; settings: read-out: Activity
MDA-MB-468 = test: Antiproliferative activity against human MDA-MB-468 cells assessed as cell growth at 10 uM relative to control; assay type: functional; settings: read-out: Activity
T47D = test: Antiproliferative activity against human T47D cells assessed as cell growth at 10 uM relative to control; assay type: functional; settings: read-out: Activity
BT-549 = test: Antiproliferative activity against human BT-549 cells assessed as cell growth at 10 uM relative to control; assay type: functional; settings: read-out: Activity
Hs-578T = test: Antiproliferative activity against human Hs-578T cells assessed as cell growth at 10 uM relative to control; assay type: functional; settings: read-out: Activity
MDA-MB-231 = test: Antiproliferative activity against human MDA-MB-231 cells assessed as cell growth at 10 uM relative to control; assay type: functional; settings: read-out: Activity
MCF7 = test: Antiproliferative activity against human MCF7 cells assessed as cell growth at 10 uM relative to control; assay type: functional; settings: read-out: Activity
DU-145 = test: Antiproliferative activity against human DU-145 cells assessed as cell growth at 10 uM relative to control; assay type: functional; settings: read-out: Activity
PC-3 = test: Antiproliferative activity against human PC-3 cells assessed as cell growth at 10 uM relative to control; assay type: functional; settings: read-out: Activity
UO-31 = test: Antiproliferative activity against human UO-31 cells assessed as cell growth at 10 uM relative to control; assay type: functional; settings: read-out: Activity
TK-10 = test: Antiproliferative activity against human TK-10 cells assessed as cell growth at 10 uM relative to control; assay type: functional; settings: read-out: Activity
SN12C = test: Antiproliferative activity against human SN12C cells assessed as cell growth at 10 uM relative to control; assay type: functional; settings: read-out: Activity
RXF 393 = test: Antiproliferative activity against human RXF 393 cells assessed as cell growth at 10 uM relative to control; assay type: functional; settings: read-out: Activity
CAKI-1 = test: Antiproliferative activity against human CAKI-1 cells assessed as cell growth at 10 uM relative to control; assay type: functional; settings: read-out: Activity
ACHN = test: Antiproliferative activity against human ACHN cells assessed as cell growth at 10 uM relative to control; assay type: functional; settings: read-out: Activity
A498 = test: Antiproliferative activity against human A498 cells assessed as cell growth at 10 uM relative to control; assay type: functional; settings: read-out: Activity
786-0 = test: Antiproliferative activity against human 786-0 cells assessed as cell growth at 10 uM relative to control; assay type: functional; settings: read-out: Activity
SK-OV-3 = test: Antiproliferative activity against human SK-OV-3 cells assessed as cell growth at 10 uM relative to control; assay type: functional; settings: read-out: Activity
OVCAR-8 = test: Antiproliferative activity against human OVCAR-8 cells assessed as cell growth at 10 uM relative to control; assay type: functional; settings: read-out: Activity
OVCAR-5 = test: Antiproliferative activity against human OVCAR-5 cells assessed as cell growth at 10 uM relative to control; assay type: functional; settings: read-out: Activity
OVCAR-4 = test: Antiproliferative activity against human OVCAR-4 cells assessed as cell growth at 10 uM relative to control; assay type: functional; settings: read-out: Activity
OVCAR-3 = test: Antiproliferative activity against human OVCAR-3 cells assessed as cell growth at 10 uM relative to control; assay type: functional; settings: read-out: Activity
IGROV-1 = test: Antiproliferative activity against human IGROV-1 cells assessed as cell growth at 10 uM relative to control; assay type: functional; settings: read-out: Activity
UACC-62 = test: Antiproliferative activity against human UACC-62 cells assessed as cell growth at 10 uM relative to control; assay type: functional; settings: read-out: Activity
UACC-257 = test: Antiproliferative activity against human UACC-257 cells assessed as cell growth at 10 uM relative to control; assay type: functional; settings: read-out: Activity
SK-MEL-5 = test: Antiproliferative activity against human SK-MEL-5 cells assessed as cell growth at 10 uM relative to control; assay type: functional; settings: read-out: Activity
SK-MEL-28 = test: Antiproliferative activity against human SK-MEL-28 cells assessed as cell growth at 10 uM relative to control; assay type: functional; settings: read-out: Activity
SK-MEL-2 = test: Antiproliferative activity against human SK-MEL-2 cells assessed as cell growth at 10 uM relative to control; assay type: functional; settings: read-out: Activity
MDA-MB-435 = test: Antiproliferative activity against human MDA-MB-435 cells assessed as cell growth at 10 uM relative to control; assay type: functional; settings: read-out: Activity
M14 = test: Antiproliferative activity against human M14 cells assessed as cell growth at 10 uM relative to control; assay type: functional; settings: read-out: Activity

Sequence of High affinity nerve growth factor receptor (P04629 33-796 limits assumed): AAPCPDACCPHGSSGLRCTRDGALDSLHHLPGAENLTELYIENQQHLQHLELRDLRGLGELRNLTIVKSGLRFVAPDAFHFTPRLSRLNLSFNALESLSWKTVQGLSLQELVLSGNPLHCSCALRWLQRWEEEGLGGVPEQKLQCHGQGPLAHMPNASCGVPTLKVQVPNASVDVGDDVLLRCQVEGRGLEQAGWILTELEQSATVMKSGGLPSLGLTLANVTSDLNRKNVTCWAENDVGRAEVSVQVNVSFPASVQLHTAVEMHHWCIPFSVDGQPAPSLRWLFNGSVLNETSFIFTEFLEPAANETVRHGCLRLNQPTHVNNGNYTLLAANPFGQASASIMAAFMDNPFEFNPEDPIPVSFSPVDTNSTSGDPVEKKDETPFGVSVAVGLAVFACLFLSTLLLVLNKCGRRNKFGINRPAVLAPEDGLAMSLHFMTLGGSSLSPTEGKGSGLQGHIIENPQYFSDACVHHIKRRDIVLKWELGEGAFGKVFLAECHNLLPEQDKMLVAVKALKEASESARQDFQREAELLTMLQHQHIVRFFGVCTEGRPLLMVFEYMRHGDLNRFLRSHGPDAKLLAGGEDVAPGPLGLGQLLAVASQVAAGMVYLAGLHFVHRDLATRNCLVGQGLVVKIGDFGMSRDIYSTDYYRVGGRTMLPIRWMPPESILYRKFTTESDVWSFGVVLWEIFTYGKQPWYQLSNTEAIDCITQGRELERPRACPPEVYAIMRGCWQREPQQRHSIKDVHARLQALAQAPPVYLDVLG

Compound: Fc1ccc(Nc2ncnc3ccsc23)cc1
- inhibition [1]: 17.4%
- pIC50 (KM12 [2]): 3.88

Compound: CN1CCN(c2ccc(C(=O)Nc3n[nH]c4ccc(Cc5cc(F)cc(F)c5)cc34)c(NC3CCOCC3)c2)CC1 [ENTRECTINIB]
- Papp at 2 h, 10 µM [3]: 17 ×10⁻⁶ cm/s
- pIC50 (KM12 [2]): 7.92

Compound: Cn1cc(-c2cc3ncnc(Nc4ccc(CC(=O)Nc5ccc(C(C)(C)C)cc5)cc4)c3s2)cn1
- growth at 10 µM (NCI/ADR-RES): 108%
- growth at 10 µM (LOX IMVI): 106%
- growth at 10 µM (Malme-3M): 102%
- growth at 10 µM (U-251): 88.3%
- growth at 10 µM (SNB-75): 75%
- growth at 10 µM (SNB-19): 101%
- growth at 10 µM (SF-539): 66.9%
- growth at 10 µM (SF-295): 117%
- growth at 10 µM (SF-268): 101%
- growth at 10 µM (SW-620): 119%
- growth at 10 µM (KM12 [4]): 22.4%
- growth at 10 µM (HT-29): 102%
- growth at 10 µM (HCT-15): 102%
- growth at 10 µM (HCT-116): 104%
- growth at 10 µM (HCC 2998): 136%
- growth at 10 µM (COLO 205): 120%
- growth at 10 µM (NCI-H522): 93%
- growth at 10 µM (NCI-H460): 99%
- growth at 10 µM (NCI-H322M): 99.7%
- growth at 10 µM (NCI-H23): 106%
- growth at 10 µM (NCI-H226): 95.5%
- growth at 10 µM (HOP-92): 132%
- growth at 10 µM (HOP-62): 125%
- growth at 10 µM (EKVX): 93.2%
- growth at 10 µM (A549): 98.3%
- growth at 10 µM (SR): 102%
- growth at 10 µM (RPMI-8226): 103%
- growth at 10 µM (MOLT-4): 97.5%
- growth at 10 µM (K562): 91.5%
- growth at 10 µM (HL-60(TB)): 97.8%
- growth at 10 µM (CCRF-CEM): 100%
- growth at 10 µM (MDA-MB-468): 90.9%
- growth at 10 µM (T47D): 93.7%
- growth at 10 µM (BT-549): 107%
- growth at 10 µM (Hs-578T): 88.8%
- growth at 10 µM (MDA-MB-231): 105%
- growth at 10 µM (MCF7): 96.2%
- growth at 10 µM (DU-145): 98.2%
- growth at 10 µM (PC-3): 99.1%
- growth at 10 µM (UO-31): 102%
- growth at 10 µM (TK-10): 98.6%
- growth at 10 µM (SN12C): 98.5%
- growth at 10 µM (RXF 393): 93.2%
- growth at 10 µM (CAKI-1): 86%
- growth at 10 µM (ACHN): 84.3%
- growth at 10 µM (A498): 88.1%
- growth at 10 µM (786-0): 101%
- growth at 10 µM (SK-OV-3): 120%
- growth at 10 µM (OVCAR-8): 103%
- growth at 10 µM (OVCAR-5): 118%
- growth at 10 µM (OVCAR-4): 98.6%
- growth at 10 µM (OVCAR-3): 110%
- growth at 10 µM (IGROV-1): 98.2%
- growth at 10 µM (UACC-62): 101%
- growth at 10 µM (UACC-257): 110%
- growth at 10 µM (SK-MEL-5): 98.3%
- growth at 10 µM (SK-MEL-28): 107%
- growth at 10 µM (SK-MEL-2): 105%
- growth at 10 µM (MDA-MB-435): 104%
- growth at 10 µM (M14): 102%

— ChEMBL document CHEMBL4813963, “Discovery of pyrazolo-thieno[3,2-d]pyrimidinylamino-phenyl acetamides as type-II pan-tropomyosin receptor kinase (TRK) inhibitors: Design, synthesis, and biological evaluation” (Eur J Med Chem, 2021)
